From patent US6979687B1, “Theophylline-based soluble guanylyl cyclase activators KMUP-1 analogues enhanced cyclic GMP and K+ channel activities on rabbit corpus cavernosum smooth muscle and intercavernous pressure activities” (Cho-Jan Liang, priority 2002, dated 2005) come the findings set out here.

Like-named read-outs stand apart in the source and are kept apart here.

For data set [1], the system named is intracavernous pressure of rabbits. Conditions: for DT, duration of tumescence / ΔICP, peak increased intracavernous pressure: n=8.
Method: Measurement of intracavernous pressure Male rabbits were used for the investigation. After sedation with an intramuscular injection of ketamine (10 mg kg^−1), the rabbits were anaesthetized with intraperitoneal pentobarbital (30 mg kg^−1) and maintained with 10 mg kg^−1 if needed. The animals breathed spontaneously. The rabbits were then placed in the supine position, and the body temperature was maintained at 37° C. The femoral artery was cannulated for continuous monitoring of systemic arterial pressure (SAP) and heart rate (HR) via a pressure transducer (Spectramed, Model P10EZ, U.S.A.). Under sterile conditions, the skin overlying the penis was incised and the corpora cavernosum was exposed at the root of the penis. A 25-gunge needle was inserted into the corpus cavernosum smooth muscles for pressure recording. The needle was connected to a three-way stopcock, thus permitting the intracavernous injection of the drugs. The tube was filled with heparinized saline (50 IU 2 h^−1) to prevent clotting.
Normal saline in increasing volumes (0.05, 0.1, 0.2 ml) was injected in four rabbits as a control group. […] In order to minimize the effect of the previous drug, the cavernous body was flushed with 0.2 ml normal saline before each injection and the time interval between each injection was at least 1.5 h.
Measurement of intracavernous pressure Male rabbits were used for the investigation. After sedation with an intramuscular injection of ketamine (10 mg kg^−1), the rabbits were anaesthetized with intraperitoneal pentobarbital (30 mg kg^−1) and maintained with 10 mg kg^−1 if needed. The animals breathed spontaneously. The rabbits were then placed in the supine position, and the body temperature was maintained at 37° C. The femoral artery was cannulated for continuous monitoring of systemic arterial pressure (SAP) and heart rate (HR) via a pressure transducer (Spectramed, Model P10EZ, U.S.A.). Under sterile conditions, the skin overlying the penis was incised and the corpora cavernosum was exposed at the root of the penis. A 25-gunge needle was inserted into the CCSMs for pressure recording. The needle was connected to a three-way stopcock, thus permitting the intracavernous injection of the drugs. The tube was filled with heparinized saline (50 IU 2 h^−1) to prevent clotting.
In data set [2] the test system is rabbit corpus cavernosum smooth muscle cells. Kind of data set: Intracellular cGMP content in rabbit corpus cavernosum smooth muscle cells. The format is cell-based. As for the experimental part:
(§1) Culture of rabbit corpus cavernosum smooth muscle cells Rabbit corpus cavernosum smooth muscles were obtained as sterile surgical specimens, the tissue was washed and cut into 1 to 2 mm pieces and placed into culture dishes with Dulbecco's modified Eagle's medium (DMEM) containing 20% fetal bovine serum (FBS), penicillin (100 U ml^−1), streptomycin (100 U ml^−1) and 2 mM Glutamine. After explants attached to the culture dish, usually 1 to 2 days, DMEM (Dulbecco's modified Eagle's medium) supplement with 10% FBS, penicillin, streptomycin, and glutamine were added. Smooth muscle cells migrated out from the explants in 3–5 days. At this time, the explants were removed, and cells were allowed to achieve confluence. Cells were detached using 0.05% trypsin, 0.02% EDTA at 37° C. for 5 minutes to establish secondary cultures. Cultures were maintained for no more than 4 passages. Cellular homogeneity was further confirmed by the presence of smooth muscle specific α-myosin and α-actin immunoreactivity. Indirect immunofluorescence staining for a variety of antigens was carried out by first plating the cells on chamber slides fixing the cells in 3.7% formaldehyde-phosphate buffered saline for 10 minutes and permeabilizing the cells with phosphate buffered saline 0.1% Triton X-100. Cells were then stained with either a mouse monoclonal antibody directed against the amino terminal 10 amino acids of α-smooth muscle actin and α-myosin (Moreland R. B. et al., J Urol., 153, 826–834, 1995).
Measurement of intracellular guanosine 3′,5′-cyclic monophosphate content Intracellular cGMP concentrations in rabbit corpus cavernosum smooth muscle cells were assayed as our previously described (Wu et al., 2001). In brief, cells were finally grown in 24-well plates (10^5 cells well^−1). […] Incubation was terminated by the addition of 6% trichloroacetic acid (TCA). Cell suspensions were sonicated and then centrifuged at 2500 g for 15 min at 4° C. Then, the supernatants were lyophilized and cGMP of each sample was determined using a commercially available radioimmunoassay kits (Amersham Pharmacia Biotech, Buckinghamshire, England).
as §1, with “Rabbit CCSMs (corpus” for “Rabbit corpus”, “smooth muscles)” for “smooth muscles”, “DMEM” for “DMEM (Dulbecco's modified Eagle's medium)”, “(Moreland” for “(Moreland R. B.”, “al.,” for “al., J Urol., 153, 826–834,”
Measurement of intracellular cyclic GMP content Intracellular cGMP concentrations in rabbit CCSM cells were assayed as our previously described (Wu et al., 2001). In brief, cells were finally grown in 24-well plates (10^5 cells well^−1). […] Incubation was terminated by the addition of 6% trichloroacetic acid (TCA). Cell suspensions were sonicated and then centrifuged at 2500 g for 15 min at 4° C. […]

A short description of data set [3]: Learning and memory behavioral tasks (Morris water maze, passive inhibitory and active avoidance, rotorod). The format is in vivo. The source says: Long-term potentiation (LTP) is a potential cellular mechanism underlying learning and memory. Nitric oxide (NO) acts as a retrograde messenger and its downstream effectors are also involved in the modulation of synaptic plasticity in various brain regions such as hippocampus, amygdala, cerebellum, brain stem, cortex etc. Although nitric oxide (NO) is thought to affect synaptic potentiation in various brain regions, the NO-cGMP-PKG pathway involved in memory acquisition in living animals is still unclear. […]. The stimulating parameter which induced long-lasting depression was shifted to a lower frequency by theophylline-based derivative. Furthermore, simultaneous perfusion of theophylline-based derivatives with different concentration of NO donor induced LTP or LTD when the hippocampal slices were stimulated at a frequency as low as 0.02 Hz. The effects of theophylline-based derivative on the behavioral tasks in the following anomal models were examined: Morris water maze, passive inhibitory and active avoidance tests, and rotorod test. […] KMUP-1 injected (1 mg/kg,i.p.) 10 min before the training shortened the escape latency in water maze, increased the retention scores in passive inhibitory avoidance task, decreased the retention time in active avoidance test, and enhanced the motor coorfination in the examination of rotorod. […] YC-1 thus enhanced LTP, learning and memory in an NO-cGMP-PKG-dependent pathway and is a promising drug to enhance learning and memory in human being.

[4] abbreviates: 0.2 mg/kg intracavernous injection.
Where [5] appears, read: 0.4 mg/kg intracavernous injection.
Setting [6] is: 0.6 mg/kg intracavernous injection.
Setting [7] is: 1 mg/kg i.p. 10 min before the training.

Regarding `Cn1c(=O)c2c(ncn2CCN2CCN(c3ccccc3Cl)CC2)n(C)c1=O` [KMUP-1, 7-[2-[4-(2-chlorophenyl)piperazinyl]-ethyl]-1,3-dimethylxanthine], in data set [1] (setting [4]), the “DT, duration of tumescence” value is 15 ± 2.24 min and the “ΔICP, peak increased intracavernous pressure” value turned out to be 30 ± 5.25 mmHg. In data set [1] (setting [5]), the “DT, duration of tumescence” value was 27 ± 2.05 min and the “ΔICP, peak increased intracavernous pressure” value is 55 ± 6.21 mmHg. Besides, in data set [1] (setting [6]), the “DT, duration of tumescence” value was determined as 35 ± 3.45 min and the “ΔICP, peak increased intracavernous pressure” value was 67 ± 12.32 mmHg. The “intracavernous pressure, dose dependence” value in data set [1] (0.2, 0.4, 0.6 mg kg−1 intracavernous) is on record as “dose-dependent elevations”. In data set [1] (rabbit, in vivo), the “HR (heart rate)” value is recorded as “unchanged” and the “SAP (systemic arterial pressure)” value was “unchanged”. The cGMP levels result in data set [2] (0.01–10 μM, in the presence of IBMX (100 μM)) is recorded as “increased the cGMP levels”. Also, in data set [2] (pretreatment with ODQ (10 μM)), the “cGMP levels after ODQ pretreatment” value is given as “inhibited”. In data set [3] (setting [7]), the “escape latency in water maze” value is listed as “shortened”, the “motor coordination in rotorod” value is given as “enhanced”, the “retention scores in passive inhibitory avoidance task” value is “increased” and the “retention time in active avoidance test” value is “decreased”. Besides, the “retention of passive inhibitory avoidance” value in data set [3] (given 30 min after foot-shock) is “did not affect”.
